These results are taken from ChEMBL document CHEMBL1201862, “PubChem BioAssay data set” (2004).

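Protocol summary: plate cells (96-well), add compound at 5 concentrations, incubate 48 h, interpolate endpoints linearly. GI50 marks 50% less growth.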 Active and inactive are the calls of the source. Rule as the data show it: active = GI50 up to about 1.1 µM and inactive = higher.

Some test systems named below: CAKI-1; COLO 205; KM-20L2; LOX IMVI; OVCAR-5; UACC-257; SK-OV-3; K562; EKVX; RPMI-8226; SF-539; DMS-273; MOLT-4; ACHN; SF-295; UACC-62; TK-10; HCT-15.
What all share (assay): NCI-60 cell line screen, 48 h

Turning to `O=C(NS(=O)(=O)c1ccccc1)C(Cc1ccccc1)C(Cc1ccccc1)C(=O)NS(=O)(=O)c1ccccc1` (centres undefined), the GI50 with CAKI-1, with COLO 205, in the test on KM-20L2, in the test on LOX IMVI, in the test with OVCAR-5 and in the test on UACC-257 was > 100 µM (inactive) in each case. Further, the GI50 in the test with SK-OV-3, in the test with K562, in the test with EKVX, with RPMI-8226, in the test on SF-539 and in the test on DMS-273 was > 100 µM (inactive) throughout. The GI50 in the test on MOLT-4, in the test with ACHN, in the test with SF-295, with UACC-62 and in the test with TK-10 was > 100 µM (inactive) each time.
Turning to `CCC1C(=O)OCc2c1cc1n(c2=O)CCC12OCCO2` (centres undefined), the GI50 in the test with CAKI-1 was > 100 µM (inactive); with HCT-15, more than 100 µM; in the test with COLO 205, > 100 µM (inactive); in the test with KM-20L2, > 100 µM (inactive); in the test with LOX IMVI, > 100 µM (inactive); in the test on OVCAR-5 it was > 100 µM (inactive). For the same compound, the GI50 in the test on UACC-257, in the test on SK-OV-3, in the test with K562, with EKVX, with RPMI-8226 and in the test with SF-539 was > 100 µM (inactive) in each case. In addition, the GI50 with DMS-273, in the test with MOLT-4, in the test with ACHN, in the test on SF-295, in the test on UACC-62 and with TK-10 was > 100 µM (inactive) throughout.
With `CC(=O)OCC1OC(OC2C(CSC3OC(COC(C)=O)C(OC(C)=O)C(OC(C)=O)C3OC(C)=O)OC(OC(C)=O)C(OC(C)=O)C2OC(C)=O)C(OC(C)=O)C(OC(C)=O)C1OC(C)=O` (centres undefined), the GI50 in the test on CAKI-1 was > 100 µM (inactive); in the test with HCT-15, more than 100 µM; with COLO 205, > 100 µM (inactive); with KM-20L2, > 100 µM (inactive); in the test with LOX IMVI, > 100 µM (inactive); with OVCAR-5, 23.7 µM (inactive). In addition, the GI50 in the test with SK-OV-3, with K562, in the test with EKVX, with RPMI-8226, with SF-539 and in the test with DMS-273 was > 100 µM (inactive) throughout. In addition, the GI50 with MOLT-4, in the test on ACHN, with SF-295, in the test on UACC-62 and with TK-10 was > 100 µM (inactive) in each case.
Consider `O=S1(=O)c2ccccc2N(O)C2=NCCN21`, for which the GI50 with CAKI-1, in the test with COLO 205, in the test on KM-20L2, in the test with LOX IMVI, with OVCAR-5 and in the test on UACC-257 was > 100 µM (inactive) in each case. Besides, the GI50 with SK-OV-3, with K562, with EKVX, in the test on RPMI-8226, in the test on SF-539 and in the test on DMS-273 was > 100 µM (inactive) throughout. For the same compound, the GI50 with MOLT-4, in the test on ACHN, with SF-295, with UACC-62 and in the test on TK-10 was > 100 µM (inactive) each time.
